This note sets out measurements from PubChem BioAssay AID624458 (Sanford-Burnham Center for Chemical Genomics, 2012).

Where “and” joins values, the source holds several entries; their conditions need not be identical. Identical values can stand only once. Calls of active or inactive are those of the source.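 The calls were made as follows: active = mean IC50 of at most 10 µM; inactive = the rest.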

This assay deals with H9c2 cardiomyoblasts, H2O2 injury protection, ATPLite luminescence, 2 h. The assay can be described thus: cardioprotective compounds against peroxide injury – H9c2 cells, H2O2, set 2, SAR follow-up (AID 624458).
For `COc1ccc2c(c1OC)C(=O)N1c3ccccc3C(=O)N(c3ccc(Br)cc3)C21` (centres undefined), the IC50 (commonly the concentration needed to halve the response being measured) was 1.97 µM.

Turning to `O=C1c2ccccc2N2C(=O)c3ccccc3C2N1c1cccc(Br)c1` (centres undefined), the IC50 is > 79 µM (inactive).

Take `COc1cc(-c2cc(C(=O)Nc3ccc(C(C)=O)cc3)c3ccccc3n2)cc(OC)c1OC`: the half-maximal inhibitory concentration (IC50) is 3.53 µM.

For the compound `CC(=O)c1cccc(NC(=O)c2cc(-c3ccccc3)nc3ccccc23)c1`, the IC50 was 7.04 µM.

For the compound `COc1cc(-c2cc(C(=O)Nc3cccc(F)c3)c3ccccc3n2)cc(OC)c1OC`, the IC50 is 10.6 µM (inactive).

As to `COc1cc(-c2cc(C(=O)Nc3cccc(Cl)c3)c3ccccc3n2)cc(OC)c1OC`, the IC50 is 58.4 µM (inactive).

For the compound `COc1ccc2c(c1OC)C(=O)N1c3ccccc3C(=O)N(Cc3ccccc3Cl)C21` (centres undefined), the half-maximal inhibitory concentration (IC50) was 1.2 µM.

In the case of `COc1ccc2c(c1OC)C(=O)N1c3ccccc3C(=O)N(Cc3cccc(Cl)c3)C21` (centres undefined), the IC50 was 2.96 µM.

`COc1ccc2c(c1OC)C(=O)N1c3ccccc3C(=O)N(c3ccc(C)cc3)C21` (centres undefined): the IC50 is 0.959 µM.

In the case of `COc1ccc(-c2cc(C(=O)Nc3cccc(C(C)=O)c3)c3ccccc3n2)cc1`, the half-inhibitory concentration (IC50) was 5.6 µM.

With `COc1ccc(N2C(=O)c3ccccc3N3C(=O)c4c(ccc(OC)c4OC)C23)cc1` (centres undefined), the IC50 was 12.8 µM (inactive).

For `COc1cccc(NC(=O)c2cc(-c3cc(OC)c(OC)c(OC)c3)nc3ccccc23)c1`, the IC50 was 8.18 µM.

Regarding `COc1cccc(CNC(=O)c2cc(-c3ccc(OC)c(OC)c3)nc3ccccc23)c1`, the 50% inhibitory concentration (IC50) is 5.82 µM.

As for `CCOC(=O)c1cccc(NC(=O)c2cc(-c3cc(OC)c(OC)c(OC)c3)nc3ccccc23)c1`, the IC50 is 3.06 µM.

`CCN(CC(=O)Nc1ccc(OC)cc1)C(=O)c1cc(-c2cc(OC)c(OC)c(OC)c2)nc2ccccc12`: the IC50 is 3.89 µM.

On to `COc1ccc(-c2cc(C(=O)Nc3cccc(C(C)=O)c3)c3ccccc3n2)cc1OC`, for which the 50% inhibitory concentration (IC50) is 8.37 µM.

Regarding `COc1cc(-c2cc(C(=O)Nc3cccc(C)c3)c3ccccc3n2)cc(OC)c1OC`, the IC50 is 18.8 µM (inactive).

On to `COc1ccc2c(c1OC)C(=O)N1c3ccccc3C(=O)N(c3cccc(F)c3)C21` (centres undefined), for which the IC50 was 6.91 µM.

Consider `COc1ccc2c(c1OC)C(=O)N1c3ccccc3C(=O)N(c3ccc(C(C)(C)C)cc3)C21` (centres undefined), for which the IC50 was 5.55 µM.

As to `COc1cc(-c2cc(C(=O)Nc3cccc(C(C)=O)c3)c3ccccc3n2)cc(OC)c1OC`, the IC50 was 1.41 µM and 4.26 µM.

For `COc1ccc(NC(=O)c2cc(-c3cc(OC)c(OC)c(OC)c3)nc3ccccc23)cc1`, the 50% inhibitory concentration (IC50) was 7.41 µM.

On to `COc1ccc2c(c1OC)C(=O)N1c3ccccc3C(=O)N(c3cccc(C)c3)C21` (centres undefined), for which the IC50 is 17.8 µM (inactive).

As to `COc1cccc(N2C(=O)c3ccccc3N3C(=O)c4c(ccc(OC)c4OC)C23)c1` (centres undefined), the IC50 was 6.89 µM.

In the case of `COc1ccc2c(c1OC)C(=O)N1c3ccccc3C(=O)N(c3cccc(Cl)c3)C21` (centres undefined), the IC50 is 12.1 µM (inactive).

Consider `COc1ccc2c(c1OC)C(=O)N1c3ccccc3C(=O)N(c3ccccc3)C21` (centres undefined), for which the IC50 was 11 µM (inactive).

On to `COc1cc(-c2cc(C(=O)Nc3ccccc3)c3ccccc3n2)cc(OC)c1OC`, for which the IC50 was 10.1 µM (inactive).

Turning to `COc1cccc(CNC(=O)c2cc(-c3cc(OC)c(OC)c(OC)c3)nc3ccccc23)c1`, the half-maximal inhibitory concentration (IC50) was 4.8 µM.

As for `COc1ccc2c(c1OC)C(=O)N1c3ccccc3C(=O)N(c3cccc(C(F)(F)F)c3)C21` (centres undefined), the IC50 is 13.8 µM (inactive).

As for `COc1cccc(N2C(=O)c3ccccc3N3C(=O)c4ccccc4C23)c1` (centres undefined), the IC50 was 40.5 µM (inactive).

In the case of `COc1cccc(-c2cc(C(=O)Nc3cccc(C(C)=O)c3)c3ccccc3n2)c1`, the half-maximal inhibitory concentration (IC50) was 6.74 µM.

Consider `COc1ccc2c(c1OC)C(=O)N1c3ccccc3C(=O)N(c3cccc(Br)c3)C21` (centres undefined), for which the concentration for half-maximal inhibition (IC50) is 1.75 µM and 12.5 µM (inactive).

`COc1cc(-c2cc(C(=O)Nc3cccc(C(C)=O)c3)c3cc(Cl)ccc3n2)cc(OC)c1OC`: the IC50 is 6.13 µM.

Turning to `O=C1c2ccccc2N2C(=O)c3ccccc3C2N1c1ccccc1` (centres undefined), the IC50 was 61.1 µM (inactive).

`COc1cc(-c2cc(C(=O)Nc3cccc(C(F)(F)F)c3)c3ccccc3n2)cc(OC)c1OC`: the IC50 was 75.3 µM (inactive).
